Assay results taken from patent US11420969B2 (Exonate Limited, priority 2017, dated 2022).
pIC50: −log10 of the molar value. Like-named read-outs stand apart in the source and are kept apart here.

Columns and labels:
SRPK1 = SRPK1 (Homo sapiens, UniProt Q96SB4); assay: In vitro SRPK1 assay (Kinase-Glo); assay type: biochemical
CYP1A2 = target: T1, CYP1A2 (Homo sapiens, UniProt P05177); assay: CYP inhibition assay, human liver microsomes, substrate tacrine; assay type: in vitro ADME; conditions: for IC50: human liver microsomes, 10 min incubation, LC-MS/MS, read-out: CYP Inhibition Activity (IC50/nM) CYP1A2
T1 construct: from tissue; host or cells: human liver microsomes
T1 sequence (P05177 1-516): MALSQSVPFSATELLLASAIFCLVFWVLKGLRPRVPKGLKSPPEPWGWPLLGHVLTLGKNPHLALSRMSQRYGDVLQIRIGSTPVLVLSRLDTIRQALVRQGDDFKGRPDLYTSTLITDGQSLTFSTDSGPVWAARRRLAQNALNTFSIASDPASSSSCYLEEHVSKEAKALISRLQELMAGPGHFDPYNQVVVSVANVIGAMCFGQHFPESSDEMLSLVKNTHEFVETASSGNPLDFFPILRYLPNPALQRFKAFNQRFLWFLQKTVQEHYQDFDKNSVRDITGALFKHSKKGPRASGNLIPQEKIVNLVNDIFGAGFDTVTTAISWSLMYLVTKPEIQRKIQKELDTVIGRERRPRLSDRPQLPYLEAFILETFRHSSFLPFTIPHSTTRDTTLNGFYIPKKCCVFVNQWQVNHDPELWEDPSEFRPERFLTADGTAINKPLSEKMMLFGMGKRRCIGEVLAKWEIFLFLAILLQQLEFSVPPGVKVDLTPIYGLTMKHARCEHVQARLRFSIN
Method: (§1) 2 μL of test compound/Positive Inhibitor working solutions is then added to the reaction plate (2 μL/well). For control, 2 μL of Acetonitrile (ACN) containing DMSO (without inhibitor) is added to the reaction plate. 20 μL of substrate pool is added to all the wells of the reaction plate. The samples are mixed in a vortexer and pre-incubated at 37° C. for 20 min. The NADPH solution is pre-warmed at 37° C. for 5 min. 20 μL of pre-warmed NADPH solution is added to the reaction plate and then incubated at 37° C. for 10 min. The reaction is terminated by adding cold ACN (200 μL/well) to the reaction mixture and centrifuging at 4,000 rpm for 20 minutes. After centrifugation, supernatant is separated and analyzed by LC-MS/MS.
(§2) % inhibition and IC50 are calculated using Graphpad Prism software.

CYP2C9 = target: T2, CYP2C9 (Homo sapiens, UniProt P11712); assay: CYP inhibition assay, human liver microsomes, substrate diclofenac; assay type: in vitro ADME; conditions: for IC50: human liver microsomes, 10 min incubation, LC-MS/MS, read-out: CYP Inhibition Activity (IC50/nM) CYP2C9
T2 construct: from tissue; host or cells: human liver microsomes
T2 sequence (P11712 whole entry): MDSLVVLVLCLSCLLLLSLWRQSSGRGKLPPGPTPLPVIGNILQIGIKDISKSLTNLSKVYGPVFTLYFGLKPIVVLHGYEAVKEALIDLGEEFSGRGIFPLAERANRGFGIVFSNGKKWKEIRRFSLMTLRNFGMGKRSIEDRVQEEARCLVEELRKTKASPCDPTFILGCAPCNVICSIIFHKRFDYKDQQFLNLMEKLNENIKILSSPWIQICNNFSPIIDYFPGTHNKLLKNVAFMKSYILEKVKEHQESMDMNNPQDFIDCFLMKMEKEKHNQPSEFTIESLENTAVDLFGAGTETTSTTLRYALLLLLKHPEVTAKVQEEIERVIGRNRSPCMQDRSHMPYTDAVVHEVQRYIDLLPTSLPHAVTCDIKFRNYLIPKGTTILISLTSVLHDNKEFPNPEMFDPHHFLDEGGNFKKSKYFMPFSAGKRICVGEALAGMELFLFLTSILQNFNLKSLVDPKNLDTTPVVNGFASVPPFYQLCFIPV
Method: as §1, §2

CYP2C19 = target: T3, CYP2C19 (Homo sapiens, UniProt P33261); assay: CYP inhibition assay, human liver microsomes, substrate S-mephenytoin; assay type: in vitro ADME; conditions: for IC50: human liver microsomes, 10 min incubation, LC-MS/MS, read-out: CYP Inhibition Activity (IC50/nM) CYP2C19
T3 construct: from tissue; host or cells: human liver microsomes
T3 sequence (P33261 whole entry): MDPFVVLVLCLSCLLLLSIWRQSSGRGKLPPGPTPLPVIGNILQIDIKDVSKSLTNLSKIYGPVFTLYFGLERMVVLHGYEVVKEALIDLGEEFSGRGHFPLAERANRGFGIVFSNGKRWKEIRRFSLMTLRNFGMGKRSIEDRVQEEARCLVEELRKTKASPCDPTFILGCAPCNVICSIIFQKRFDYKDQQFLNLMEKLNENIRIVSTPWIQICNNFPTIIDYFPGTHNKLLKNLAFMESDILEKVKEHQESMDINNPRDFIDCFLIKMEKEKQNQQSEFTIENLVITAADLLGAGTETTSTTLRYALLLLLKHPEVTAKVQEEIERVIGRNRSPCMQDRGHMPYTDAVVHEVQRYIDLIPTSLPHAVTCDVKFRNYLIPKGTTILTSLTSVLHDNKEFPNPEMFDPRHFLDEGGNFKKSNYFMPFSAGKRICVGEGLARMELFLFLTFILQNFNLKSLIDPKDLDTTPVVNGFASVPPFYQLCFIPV
Method: as §1, §2

CYP2D6 = target: T4, CYP2D6 (Homo sapiens, UniProt P10635); assay: biochemical; assay type: in vitro ADME; conditions: for IC50: human liver microsomes, 10 min incubation, LC-MS/MS, read-out: CYP Inhibition Activity (IC50/nM) CYP2D6
T4 construct: from tissue; host or cells: human liver microsomes
T4 sequence (P10635 whole entry): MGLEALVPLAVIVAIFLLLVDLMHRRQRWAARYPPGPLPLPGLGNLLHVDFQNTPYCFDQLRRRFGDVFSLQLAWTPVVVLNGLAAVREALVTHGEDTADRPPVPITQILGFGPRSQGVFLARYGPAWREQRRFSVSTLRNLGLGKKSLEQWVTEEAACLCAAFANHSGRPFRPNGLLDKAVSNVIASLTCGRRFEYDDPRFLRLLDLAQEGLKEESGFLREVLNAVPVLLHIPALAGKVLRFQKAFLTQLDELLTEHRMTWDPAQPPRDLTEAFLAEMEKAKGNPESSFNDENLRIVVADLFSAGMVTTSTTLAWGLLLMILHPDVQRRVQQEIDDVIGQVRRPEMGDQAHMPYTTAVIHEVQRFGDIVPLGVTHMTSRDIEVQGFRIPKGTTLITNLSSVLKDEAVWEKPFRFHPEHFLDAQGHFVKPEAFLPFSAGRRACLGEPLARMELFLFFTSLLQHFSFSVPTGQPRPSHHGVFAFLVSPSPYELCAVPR
Method: 158 μL of Human Liver Microsomes working stock solution is added to a reaction plate (0.253 mg/mL, 158 μL/well). 2 μL of test compound/Positive Inhibitor working solutions is then added to the reaction plate (2 μL/well). For control, 2 μL of Acetonitrile (ACN) containing DMSO (without inhibitor) is added to the reaction plate. 20 μL of substrate pool is added to all the wells of the reaction plate. The samples are mixed in a vortexer and pre-incubated at 37° C. for 20 min. The NADPH solution is pre-warmed at 37° C. for 5 min. 20 μL of pre-warmed NADPH solution is added to the reaction plate and then incubated at 37° C. for 10 min. The reaction is terminated by adding cold ACN (200 μL/well) to the reaction mixture and centrifuging at 4,000 rpm for 20 minutes. After centrifugation, supernatant is separated and analyzed by LC-MS/MS.
as §2

CYP3A4 = target: T5, CYP3A4 (Homo sapiens, UniProt P08684); assay: CYP inhibition assay, human liver microsomes, substrate midazolam; assay type: in vitro ADME; conditions: for IC50: human liver microsomes, 10 min incubation, LC-MS/MS, read-out: CYP Inhibition Activity (IC50/nM) CYP3A4
T5 construct: from tissue; host or cells: human liver microsomes
T5 sequence (P08684 whole entry): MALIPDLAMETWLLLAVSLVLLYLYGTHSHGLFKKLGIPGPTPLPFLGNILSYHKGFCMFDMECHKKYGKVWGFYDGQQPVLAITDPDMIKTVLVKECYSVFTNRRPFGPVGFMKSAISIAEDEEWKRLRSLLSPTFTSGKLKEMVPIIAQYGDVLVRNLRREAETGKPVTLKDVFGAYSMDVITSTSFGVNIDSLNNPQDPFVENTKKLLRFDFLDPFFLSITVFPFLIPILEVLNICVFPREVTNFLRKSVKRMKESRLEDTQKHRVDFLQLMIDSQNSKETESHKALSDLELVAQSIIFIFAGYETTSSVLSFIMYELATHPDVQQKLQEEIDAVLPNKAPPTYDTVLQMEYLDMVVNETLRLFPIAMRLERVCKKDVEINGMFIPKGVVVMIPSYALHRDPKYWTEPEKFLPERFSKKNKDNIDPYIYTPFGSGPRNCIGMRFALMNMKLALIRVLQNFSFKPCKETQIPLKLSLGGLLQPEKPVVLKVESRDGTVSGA
Method: as §1, §2

SRPK1, sequence (Q96SB4 whole entry, species assumed): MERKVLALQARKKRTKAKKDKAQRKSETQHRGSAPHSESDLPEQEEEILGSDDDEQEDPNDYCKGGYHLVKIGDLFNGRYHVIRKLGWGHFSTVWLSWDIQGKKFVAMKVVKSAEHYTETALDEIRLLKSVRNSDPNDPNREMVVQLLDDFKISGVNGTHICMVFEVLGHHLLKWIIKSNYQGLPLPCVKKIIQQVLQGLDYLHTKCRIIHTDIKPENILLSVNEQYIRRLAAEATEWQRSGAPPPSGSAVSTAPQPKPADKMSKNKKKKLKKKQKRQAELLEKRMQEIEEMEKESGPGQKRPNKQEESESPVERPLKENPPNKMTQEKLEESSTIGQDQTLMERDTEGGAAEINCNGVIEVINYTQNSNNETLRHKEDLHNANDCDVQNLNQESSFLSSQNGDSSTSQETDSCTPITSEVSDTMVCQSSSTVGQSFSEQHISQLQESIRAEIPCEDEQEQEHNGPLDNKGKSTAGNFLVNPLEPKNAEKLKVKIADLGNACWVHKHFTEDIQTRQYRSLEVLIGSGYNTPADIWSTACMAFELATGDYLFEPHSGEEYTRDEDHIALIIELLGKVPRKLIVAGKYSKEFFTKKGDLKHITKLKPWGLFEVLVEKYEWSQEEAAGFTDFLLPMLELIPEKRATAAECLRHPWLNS

## CN(C)CC1(C)CCN(c2ccc(C(F)(F)F)cc2NC(=O)c2ccc(-c3ccncc3)o2)CC1 [Example 80, N-(2-(4-((dimethylamino)methyl)-4-methyl-piperidin-1-yl)-5-(trifluoromethyl)phenyl)-5-(pyridin-4-yl)furan-2-carboxamide]
SRPK1
  IC50: 42 nM
CYP1A2
  IC50: > 30000 nM
CYP2C9
  IC50: 7640 nM
CYP2C19
  IC50: 7340 nM
CYP2D6
  pIC50: 5.98
CYP3A4
  IC50: 3540 nM

## CC1(CN2CCCC2)CCN(c2ccc(C(F)(F)F)cc2NC(=O)c2ccc(C3CCOCC3)o2)CC1 [Example 95, N-(2-(4-methyl-4-(pyrrolidin-1-ylmethyl)piperidin-1-yl)-5-(trifluoromethyl)phenyl)-5-(tetrahydro-2H-pyran-4-yl)furan-2-carboxamide]
SRPK1
  IC50: 24 nM
CYP1A2
  IC50: > 30000 nM
CYP2C9
  IC50: 10100 nM
CYP2C19
  IC50: > 30000 nM
CYP2D6
  pIC50: 6.40
CYP3A4
  IC50: 7300 nM

## CCC1(O)CCN(c2ccc(C(F)(F)F)cc2NC(=O)c2ccc(C3CCOCC3)o2)CC1 [Example 20, N-(2-(4-ethyl-4-hydroxypiperidin-1-yl)-5-(trifluoromethyl)phenyl)-5-(tetrahydro-2H-pyran-4-yl)furan-2-carboxamide]
SRPK1
  IC50: 6 nM
CYP1A2
  IC50: > 30000 nM
CYP2C9
  IC50: > 30000 nM
CYP2C19
  IC50: > 30000 nM
CYP2D6
  pIC50: < 4.52
CYP3A4
  IC50: > 30000 nM

## CC1(C(=O)O)CCN(c2ccc(C(F)(F)F)cc2NC(=O)c2ccc(C3CCOCC3)o2)CC1 [Example 27, 4-methyl-1-(2-(5-(tetrahydro-2H-pyran-4-yl)furan-2-carboxamido)-4-(trifluoromethyl)phenyl)-piperidine-4-carboxylic acid]
SRPK1
  IC50: 3.6 nM
CYP1A2
  IC50: > 30000 nM
CYP2C9
  IC50: 12600 nM
CYP2C19
  IC50: > 30000 nM
CYP2D6
  pIC50: < 4.52
CYP3A4
  IC50: > 30000 nM

## CN(C)C(=O)C1(C)CCN(c2ccc(C(F)(F)F)cc2NC(=O)c2ccc(C3CCOCC3)o2)CC1 [Example 77, N,N,4-trimethyl-1-(2-(5-(tetrahydro-2H-pyran-4-yl)furan-2-carboxamido)-4-(trifluoromethyl)-phenyl)piperidine-4-carboxamide]
SRPK1
  IC50: 1.6 nM
CYP1A2
  IC50: > 30000 nM
CYP2C9
  IC50: 1440 nM
CYP2C19
  IC50: 4780 nM
CYP2D6
  pIC50: 5.02
CYP3A4
  IC50: 970 nM

## CC1(C(=O)N2CCCCC2)CCN(c2ccc(C(F)(F)F)cc2NC(=O)c2ccc(C3CCOCC3)o2)CC1 [Example 89, N-(2-(4-methyl-4-(piperidine-1-carbonyl)-piperidin-1-yl)-5-(trifluoromethyl)phenyl)-5-(tetrahydro-2H-pyran-4-yl)furan-2-carboxamide]
SRPK1
  IC50: 14 nM
CYP1A2
  IC50: > 30000 nM
CYP2C9
  IC50: 2500 nM
CYP2C19
  IC50: 14100 nM
CYP2D6
  pIC50: 4.72
CYP3A4
  IC50: 2800 nM

## O=C(Nc1cc(C(F)(F)F)ccc1N1CCC2(CCCC2)CC1)c1ccc(C2CCOCC2)o1 [Example 98, N-(2-(8-azaspirol4.51decan-8-yl)-5-(trifluoromethyl)phenyl)-5-(tetrahydro-2H-pyran-4-yl)furan-2-carboxamide]
SRPK1
  IC50: 7.5 nM
CYP1A2
  IC50: > 30000 nM
CYP2C9
  pIC50: 4.73
CYP2C19
  IC50: > 30000 nM
CYP2D6
  IC50: > 30000 nM
CYP3A4
  IC50: > 30000 nM

## CC1(O)CCN(c2ccc(Cl)cc2NC(=O)c2ccccn2)CC1 [Example 2, N-(5-chloro-2-(4-hydroxy-4-methylpiperidin-1-yl)-phenyl)picolinamide]
SRPK1
  IC50: 25 nM
CYP1A2
  IC50: 5890 nM
CYP2C9
  IC50: 13500 nM
CYP2C19
  IC50: 18200 nM
CYP2D6
  pIC50: < 4.52
CYP3A4
  IC50: 10000 nM

## CC1(C(=O)O)CCN(c2ccc(C(F)(F)F)cc2NC(=O)c2ccc(-c3ccncc3)o2)CC1 [Example 26, 4-methyl-1-(2-(5-(pyridin-4-yl)furan-2-carboxamido)-4-(trifluoromethyl)phenyl)-piperidine-4-carboxylic acid]
SRPK1
  IC50: 5.6 nM
CYP1A2
  IC50: > 30000 nM
CYP2C9
  IC50: 2150 nM
CYP2C19
  IC50: 12900 nM
CYP2D6
  pIC50: < 4.52
CYP3A4
  IC50: 4440 nM

## CC1(CN)CCN(c2ccc(C(F)(F)F)cc2NC(=O)c2ccc(C3CCOCC3)o2)CC1 [Example 81, N-(2-(4-(aminomethyl)-4-methylpiperidin-1-yl)-5-(trifluoromethyl)phenyl)-5-(tetrahydro-2H-pyran-4-yl)furan-2-carboxamide]
SRPK1
  IC50: 2.6 nM
CYP1A2
  IC50: > 30000 nM
CYP2C9
  IC50: 23000 nM
CYP2D6
  pIC50: 5.30
CYP3A4
  IC50: 21200 nM

## CC1(O)CCCN(c2ccc(C3CC3)cc2NC(=O)c2ccc(-c3ccncc3)o2)CC1 (racemic) [Example 39, N-(5-cyclopropyl-2-(4-hydroxy-4-methylazepan-1-yl)phenyl)-5-(pyridin-4-yl)-furan-2-carboxamide]
SRPK1
  IC50: 35 nM
CYP1A2
  IC50: 17600 nM
CYP2C9
  IC50: 11500 nM
CYP2D6
  pIC50: < 4.52
CYP3A4
  IC50: 18300 nM

## O=C(Nc1cc(C(F)(F)F)ccc1N1CCN(Cc2ccco2)CC1)c1ccc(-c2ccncc2)o1 [Reference Example 2, N-(2-(4-(furan-2-ylmethyl)piperazin-1-yl)-5-(trifluoromethyl)phenyl)-5-(pyridin-4-yl)furan-2-carboxamide, reference compound]
CYP1A2
  IC50: 21800 nM
CYP2C9
  IC50: 610 nM
CYP2C19
  IC50: 690 nM
CYP2D6
  pIC50: 6.59
CYP3A4
  IC50: 1180 nM

## O=C(Nc1cc(C(F)(F)F)ccc1N1CCN(Cc2ccccn2)CC1)c1ccc(-c2ccncc2)o1 [Reference Example 1, reference compound]
CYP1A2
  IC50: > 30000 nM
CYP2C9
  pIC50: 6.77
CYP2C19
  IC50: 230 nM
CYP2D6
  IC50: 740 nM
CYP3A4
  IC50: 310 nM

## O=C(Nc1cc(C(F)(F)F)ccc1N1CCN(Cc2cc[nH]n2)CC1)c1ccc(C2CCOCC2)o1 [Reference Example 3, N-(2-(4-((1H-pyrazol-3-yl)methyl)piperazin-1-yl)-5-(trifluoromethyl)-phenyl)-5-(tetrahydro-2H-pyran-4-yl)furan-2-carboxamide, reference compound]
CYP1A2
  IC50: > 30000 nM
CYP2C9
  IC50: 230 nM
CYP2C19
  IC50: 610 nM
CYP2D6
  pIC50: 5.15
CYP3A4
  IC50: 4160 nM

## O=C(Nc1cc(C(F)(F)F)ccc1N1CCC(CO)CC1)c1ccccn1 [Example 31, N-(2-(4-(hydroxymethyl)piperidin-1-yl)-5-(trifluoromethyl)phenyl)picolinamide]
SRPK1
  IC50: 41 nM

## O=C(Nc1cc(C(F)(F)F)ccc1N1CCCC(O)CC1)c1ccccn1 (racemic) [Example 43, N-(2-(4-hydroxyazepan-1-yl)-5-(trifluoromethyl)-phenyl)picolinamide]
SRPK1
  IC50: 3.4 nM

## O=C(Nc1cc(C(F)(F)F)ccc1N1CCN(Cc2cocn2)CC1)c1ccc(-c2ccncc2)o1 [Reference Example 4, N-(2-(4-(oxazol-4-ylmethyl)piperazin-1-yl)-5-(trifluoromethyl)phenyl)-5-(pyridin-4-yl)furan-2-carboxamide, reference compound]
CYP1A2
  IC50: > 30000 nM
CYP2C9
  IC50: 170 nM
CYP2C19
  IC50: 290 nM
CYP2D6
  pIC50: 6.26
CYP3A4
  IC50: 830 nM

## 5-(pyridin-4-yl)-N-(2-(5-(thiazol-2-ylmethyl)piperazin-1-yl)-5-(trifluoromethyl)phenyl)furan-2-carboxamide [Reference Example 5, reference compound]
CYP1A2; microsomes
  pIC50: 4.82
CYP2C9; microsomes
  pIC50: 6.60
CYP2C19; microsomes
  pIC50: 6.64
CYP2D6; microsomes
  pIC50: 6.70
CYP3A4; microsomes
  pIC50: 6.21

## O=C(Nc1cc(C(F)(F)F)ccc1N1CCC(C(=O)O)CC1)c1ccccn1 [Example 30, 1-(2-(picolinamido)-4-(trifluoromethyl)phenyl)-piperidine-4-carboxylic acid]
SRPK1
  IC50: 76 nM
